# Reference: PubChem BioAssay AID1918936 (Molecular Pharmacology Branch, DTP, NCI, 2023)
# Test system: 349418-098-R-PDC complex spheroid viability
# Assay: Anticancer human tumor 349418-098-R-PDC patient-derived lung adenocarcinoma cell line growth inhibition
# Conditions: for IC50: curve of first compound; for viability, T/C: stronger effect = lower value
# Summary of the method: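 Multicellular complex spheroids of tumor cells with human endothelial cells (HUVEC) and mesenchymal stem cells; the LSD1 inhibitor iadademstat was combined with standard-of-care or investigational agents. Top concentration at or near clinical Cmax, half-log dilutions; final DMSO ≤0.25%.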
# [1] = second compound 0.1 µM, first compound 0.00949 µM
# [2] = second compound 0.1 µM, first compound 0.03 µM
# [3] = second compound 0.1 µM, first compound 0.0949 µM
# [4] = second compound 0.1 µM, first compound 0.3 µM
# [5] = second compound 0.316 µM, first compound 0.00949 µM
# [6] = second compound 0.316 µM, first compound 0.03 µM
# [7] = second compound 0.316 µM, first compound 0.0949 µM
# [8] = second compound 0.316 µM, first compound 0.3 µM
# [9] = second compound 1 µM, first compound 0.00949 µM
# [10] = second compound 1 µM, first compound 0.03 µM
# [11] = second compound 1 µM, first compound 0.0949 µM
# [12] = second compound 1 µM, first compound 0.3 µM
# [13] = second compound 3.16 µM, first compound 0.00949 µM
# [14] = second compound 3.16 µM, first compound 0.03 µM
# [15] = second compound 3.16 µM, first compound 0.0949 µM
# [16] = second compound 3.16 µM, first compound 0.3 µM
# [17] = second compound 10 µM, first compound 0.00949 µM
# [18] = second compound 10 µM, first compound 0.03 µM
# [19] = second compound 10 µM, first compound 0.0949 µM
# [20] = second compound 10 µM, first compound 0.3 µM
# 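Also: spheroids exposed to agents for seven days before readout.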
# 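For viability, T/C in this document: 100% = DMSO vehicle control wells.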
smiles,measurement,setting,value
CCN(c1cc(-c2ccc(CN3CCOCC3)cc2)cc(C(=O)NCc2c(C)cc(C)[nH]c2=O)c1C)C1CCOCC1 + NC1CCC(NC2CC2c2ccccc2)CC1,IC50,second compound 0.1 µM,> 3 µM
same,IC50,second compound 0.316 µM,> 3 µM
same,IC50,second compound 1 µM,> 3 µM
same,IC50,second compound 3.16 µM,> 3 µM
same,IC50,second compound 10 µM,0.64 µM
same,"viability, T/C",[1],107%
same,"viability, T/C",[2],93.5%
same,"viability, T/C",[3],82.9%
same,"viability, T/C",[4],70.5%
same,"viability, T/C","second compound 0.1 µM, first compound 0.949 µM",59.3%
same,"viability, T/C","second compound 0.1 µM, first compound 3 µM",60%
same,"viability, T/C",[5],99.1%
same,"viability, T/C",[6],105%
same,"viability, T/C",[7],90.1%
same,"viability, T/C",[8],77.5%
same,"viability, T/C","second compound 0.316 µM, first compound 0.949 µM",69.3%
same,"viability, T/C","second compound 0.316 µM, first compound 3 µM",62.2%
same,"viability, T/C",[9],106%
same,"viability, T/C",[10],88.7%
same,"viability, T/C",[11],98%
same,"viability, T/C",[12],75.6%
same,"viability, T/C","second compound 1 µM, first compound 0.949 µM",75.3%
same,"viability, T/C","second compound 1 µM, first compound 3 µM",57%
same,"viability, T/C",[13],106%
same,"viability, T/C",[14],87.6%
same,"viability, T/C",[15],81%
same,"viability, T/C",[16],68.3%
same,"viability, T/C","second compound 3.16 µM, first compound 0.949 µM",55.6%
same,"viability, T/C","second compound 3.16 µM, first compound 3 µM",59.5%
same,"viability, T/C",[17],79%
same,"viability, T/C",[18],91.2%
same,"viability, T/C",[19],64.9%
same,"viability, T/C",[20],59.7%
same,"viability, T/C","second compound 10 µM, first compound 0.949 µM",47.4%
same,"viability, T/C","second compound 10 µM, first compound 3 µM",34.5%
Nc1ncn(C2CC(O)C(CO)S2)c(=O)n1 (stereo not given) + NC1CCC(NC2CC2c2ccccc2)CC1,IC50,second compound 0.1 µM,0.0185 µM
same,IC50,second compound 0.316 µM,0.0192 µM
same,IC50,second compound 1 µM,0.0203 µM
same,IC50,second compound 3.16 µM,0.0192 µM
same,IC50,second compound 10 µM,0.0124 µM
same,"viability, T/C","second compound 0.1 µM, first compound 0.000949 µM",107%
same,"viability, T/C","second compound 0.1 µM, first compound 0.003 µM",85.5%
same,"viability, T/C",[1],71.7%
same,"viability, T/C",[2],34.7%
same,"viability, T/C",[3],19.6%
same,"viability, T/C",[4],8.78%
same,"viability, T/C","second compound 0.316 µM, first compound 0.000949 µM",104%
same,"viability, T/C","second compound 0.316 µM, first compound 0.003 µM",100%
same,"viability, T/C",[5],71.6%
same,"viability, T/C",[6],35.9%
same,"viability, T/C",[7],16.1%
same,"viability, T/C",[8],9.32%
same,"viability, T/C","second compound 1 µM, first compound 0.000949 µM",117%
same,"viability, T/C","second compound 1 µM, first compound 0.003 µM",96.2%
same,"viability, T/C",[9],74.3%
same,"viability, T/C",[10],38.1%
same,"viability, T/C",[11],16.1%
same,"viability, T/C",[12],8.39%
same,"viability, T/C","second compound 3.16 µM, first compound 0.000949 µM",97.5%
same,"viability, T/C","second compound 3.16 µM, first compound 0.003 µM",89.8%
same,"viability, T/C",[13],73.4%
same,"viability, T/C",[14],34.8%
same,"viability, T/C",[15],15.6%
same,"viability, T/C",[16],7.02%
same,"viability, T/C","second compound 10 µM, first compound 0.000949 µM",75.8%
same,"viability, T/C","second compound 10 µM, first compound 0.003 µM",86%
same,"viability, T/C",[17],51.1%
same,"viability, T/C",[18],30.3%
same,"viability, T/C",[19],16%
same,"viability, T/C",[20],7.62%
O=C(C=Cn1cnc(-c2cc(C(F)(F)F)cc(C(F)(F)F)c2)n1)NNc1cnccn1 + NC1CCC(NC2CC2c2ccccc2)CC1,IC50,second compound 0.1 µM,< 0.00316 µM
same,IC50,second compound 0.316 µM,< 0.00316 µM
same,IC50,second compound 1 µM,< 0.00316 µM
same,IC50,second compound 3.16 µM,< 0.00316 µM
same,IC50,second compound 10 µM,< 0.00316 µM
same,"viability, T/C","second compound 0.1 µM, first compound 0.00316 µM",19.9%
same,"viability, T/C","second compound 0.1 µM, first compound 0.01 µM",8.25%
same,"viability, T/C","second compound 0.1 µM, first compound 0.0316 µM",7.06%
same,"viability, T/C","second compound 0.1 µM, first compound 0.1 µM",4.2%
same,"viability, T/C","second compound 0.1 µM, first compound 0.316 µM",3.1%
same,"viability, T/C","second compound 0.1 µM, first compound 1 µM",2.53%
same,"viability, T/C","second compound 0.316 µM, first compound 0.00316 µM",16.7%
same,"viability, T/C","second compound 0.316 µM, first compound 0.01 µM",8.83%
same,"viability, T/C","second compound 0.316 µM, first compound 0.0316 µM",6.85%
same,"viability, T/C","second compound 0.316 µM, first compound 0.1 µM",4.29%
same,"viability, T/C","second compound 0.316 µM, first compound 0.316 µM",3.65%
same,"viability, T/C","second compound 0.316 µM, first compound 1 µM",2.34%
same,"viability, T/C","second compound 1 µM, first compound 0.00316 µM",22.8%
same,"viability, T/C","second compound 1 µM, first compound 0.01 µM",8.34%
same,"viability, T/C","second compound 1 µM, first compound 0.0316 µM",6.23%
same,"viability, T/C","second compound 1 µM, first compound 0.1 µM",4.78%
same,"viability, T/C","second compound 1 µM, first compound 0.316 µM",2.92%
same,"viability, T/C","second compound 1 µM, first compound 1 µM",2.31%
same,"viability, T/C","second compound 3.16 µM, first compound 0.00316 µM",21%
same,"viability, T/C","second compound 3.16 µM, first compound 0.01 µM",8.38%
same,"viability, T/C","second compound 3.16 µM, first compound 0.0316 µM",7.11%
same,"viability, T/C","second compound 3.16 µM, first compound 0.1 µM",4.9%
same,"viability, T/C","second compound 3.16 µM, first compound 0.316 µM",3.12%
same,"viability, T/C","second compound 3.16 µM, first compound 1 µM",2.6%
same,"viability, T/C","second compound 10 µM, first compound 0.00316 µM",17.9%
same,"viability, T/C","second compound 10 µM, first compound 0.01 µM",9.32%
same,"viability, T/C","second compound 10 µM, first compound 0.0316 µM",6.65%
same,"viability, T/C","second compound 10 µM, first compound 0.1 µM",4.32%
same,"viability, T/C","second compound 10 µM, first compound 0.316 µM",3.64%
same,"viability, T/C","second compound 10 µM, first compound 1 µM",2.6%
